Test results: patent US4551538A, “Phenylpyrazolidine acetic acid derivatives” (American Home Products Corporation, priority 1984, dated 1985)
Where “and” joins values, the source holds several entries; their conditions need not be identical. Equal entries are not always repeated. Where two headings read alike, the source gives them in different places. Each block holds one molecule with its values, some of them ahead of it.

Experiments:
cyclooxygenase = conditions: background statement; cited from earlier work
[1] = test system: arachidonic acid lipoxygenase oxidation product 5-HETE; experiment: inhibition of 5-HETE synthesis by rat glycogen-elicited polymorphonuclear leukocytes; assay type: cell-based, rat (Wistar); conditions: Leukocyte, read-out: 50% Inhibitory Concentration of (IC50) 5-HETE
Protocol: The assay of this Example measures the ability of the compounds of the invention to inhibit the synthesis of 5-HETE by rat glycogen-elicited polymorphonuclear leukocytes.
The assay is carried out as follows:
(§1) Peritoneal PMN are obtained from female Wistar rats (150-250 g) that received an i.p. injection of 6% glycogen (10 ml). After 24 hours, rats are killed by CO2 asphyxiation and peritoneal cells are harvested by peritoneal lavage using Ca^++ and Mg^++ free Hanks' balanced salt solution (HBSS). The peritoneal exudate is centrifuged at 400 g for 10 minutes. After centrifugation, the lavaged fluid is removed and the cell pellet is resuspended in HBSS containing Ca^++ and Mg^++ and 10 mM L-cysteine at a concentration of 2×10^7 cells/ml. To 1 ml portions of cell suspension, test drugs or vehicle are added and incubated at 37° C. for 10 minutes. Following this preincubation, the calcium ionophore (10 μM), A23187, is added together with 0.5 μCi [^14 C] arachidonic acid and further incubated for 10 minutes. The reaction is stopped by the addition of ice cold water (3 ml) and acidifying to pH 3.5. Lipoxygenase products are then extracted twice into diethyl ether. The pooled ether extracts are evaporated to dryness under nitrogen and the residue is redissolved in a small volume of methanol and spotted on aluminum backed pre-coated thin layer chromatographic plates. The samples are then co-chromatographed with authentic reference 5-HETE, in the solvent system--hexane:ether:acetic acid (50:50:3). After chromatography, the areas associated with 5-HETE standard are identified by autoradiography, cut out and quantitated by liquid scintillation.
(§2) Results are expressed as % inhibition of [^14 C]5-HETE synthesis. [formula]

[2] = test system: acute inflammatory response (carrageenan rat paw edema); experiment: carrageenan rat paw edema test; assay type: in vivo, rat (Sprague-Dawley); conditions: for ED50: Rattus norvegicus, po, 3 h, read-out: ED50, paw edema; for % Inhibition of paw edema: 200 mg/kg perorally, 3 h reading; for profile of activity in carrageenan rat paw edema test: in vivo
Protocol: In this test, male Sprague-Dawley (Charles River) rats weighing 140-180 gm, in groups of 6 animals, are injected subcutaneously in the right paw with 0.1 ml of 1% carrageenan at zero time. Mercury plethysmographic readings (ml) of the paw are made at zero time and 3 hours later. Drugs are suspended or dissolved in 0.5% methylcellulose and given perorally one hour prior to carrageenan. The increase in paw volume (edema in ml) produced by the inflammatory agent, carrageenan, is measured.
Unpaired Student's t-test is used to determine statistical significance.

[3] = test system: urate-induced canine synovitis; experiment: urate-induced canine synovitis test; assay type: in vivo, dog (mongrel); conditions: Canis lupus familiaris, read-out: Oral ED50
Protocol: In this procedure, healthy mongrel dog of either sex weighing between 14-20 kg are adapted to a measuring platform. […] A Hewlett Packard 75C computer then converts voltage into kilogram units (mean pressure reading for 1 minute). This control pressure represents the 100% value in this procedure. Synovitis is induced by injecting 5 mg of sodium urate crystals (5-15μ in length) in 1 ml of 0.9% saline solution into the synovial space of the right or left knee. Readings are taken at 1, 2, 2.5, 3, 3.5, 4, 4.5 and 5 hours after urate administration and calculated as a percentage of control hind paw pressure. […] Dogs are used only once in these experiments to prevent tolerance.
Each dog is placed on the pressure measuring apparatus with its left or right hind paw centered above the load cell, and pressure readings are recorded for one minute. Two or three control readings are averaged and represent control paw pressure. Single pressure readings are taken after sodium urate injection.
Drug effects are expressed as a percentage of control paw pressure which is calculated as follows:
Test reading/Control reading×100
Test reading=Pressure measurement after sodium urate injection and drug or no drug (blank capsule).
Control reading=Mean pressure measurement before sodium urate injection.
A one-way analysis of variance with Dunnett's comparisons to control (α=0.05 and 0.01) was used to determine statistical significance.

[4] = test system: AA-induced mouse ear edema; experiment: arachidonic acid (AA)-induced murine ear edema test; assay type: in vivo, mouse (Swiss Webster); conditions: for ED50: Mus musculus, 1 h; for % Change from Control, AA ear edema: * p ≤ 0.05
Text: (§3) The ability of the compounds of the invention to inhibit the lipoxygenase and cyclooxygenase pathways of arachidonic acid is examined in the in vivo arachidonic acid (AA)-/12-O-tetradecanoylphorbol acetate (TPA)-induced murine ear edema test.
(§4) According to this test, Swiss Webster female mice (Buckshire), approximately 8 weeks old, are placed into plastic boxes in groups of six. Eight groups of mice receive AA topically on the right ear, and another 8 groups receive TPA topically on the right ear. AA and TPA are dissolved in acetone at concentrations of 100 mg/ml and 100 μg/ml respectively. The phlogistics are applied to the right ear by the means of an automatic pipet. Volumes of 10 μl are applied to the inner and outer surfaces of the ear. Each mouse receives either 2 mg/ear AA or 4 μg/ear TPA. The left ear (control) receives acetone delivered in the same manner. Oral and topical dosing regimens are as follows: (1) drugs are given 30 minutes prior to AA treatment, and (2) drugs are given 30 minutes after treatment with TPA.
(§5) Measurements are taken with Oditest calipers, 0-10 mm with 0.01 graduations. The right and left ears are measured after 1 hour AA-induced inflammation and 4 hours after TPA-induced inflammation.
(§6) The difference between right and left ear thickness is calculated and the significance is determined by a one way analysis of variance with Dunnett's comparisons to control (P=0.05). Drug effects are expressed as a percent change from control values: [formula]

[5] = test system: arachidonic acid cyclooxygenase oxidation product PGE2; experiment: inhibition of PGE2 synthesis by rat polymorphonuclear leukocytes; assay type: cell-based, rat (Wistar); conditions: read-out: 50% Inhibitory Concentration (IC50), PGE2
Protocol: as §1, §2
However, in order to determine cyclooxygenase activity, the samples are cochromatographed with authentic reference PGE2 in the solvent system ethyl acetate:formic acid (80:1) and the upper phase of ethyl acetate:isoctane:acetic acid:water (110:50:20:100). After chromatography, the areas associated with PGE2 standard are identified by autoradiography, cut out and quantitated by liquid scintillation techniques.

[6] = test system: TPA-induced mouse ear edema; experiment: 12-O-tetradecanoylphorbol acetate (TPA)-induced murine ear edema test; assay type: in vivo, mouse (Swiss Webster); conditions: for ED50: Mus musculus, 4 h; for % Change from Control, TPA ear edema: * p ≤ 0.05
Text: as §3, §4, §5, §6

[7] = test system: phenylbenzoquinone-induced writhing; experiment: phenylbenzoquinone-induced writhing test; assay type: in vivo, mouse (CF-1)
Protocol: In this procedure, test compound or vehicle is administered at various doses to ten male CF-1 mice, weighing 20-25 g, per dose level. The animals then receive intraperitoneal injection with 0.25 ml of the writhing agonist (a 0.02% solution of benzoquinone) 5 minutes before the beginning of a pre-selected, 10-minute observation period. Typical observation periods include 10 to 20, 25 to 35, 40 to 50 and 55 to 65 minutes following administration of the test compound. The mice are observed during the observation period and the total numbers of writhes are determined for each mouse.

lipoxygenase = conditions: background statement; cited from earlier work
[8] = perorally, 1 h prior to carrageenan
[9] = rat PMN, A23187 10 μM, [14C] arachidonic acid
[10] = Leukocyte, rat PMN, A23187 10 μM, [14C] arachidonic acid
[11] = 200 mg/kg; Control = 15.5; * p ≤ 0.05

SMILES: NC1=NN(c2cccc(C(F)(F)F)c2)CC1 [BW755C, 3-amino-1-[m-(trifluoromethyl)phenyl]-2-pyrazoline, reference compound]
inhibition of cyclooxygenase activity (cyclooxygenase): inhibitors of both cyclooxygenase and lipoxygenase activity
IC50 ([1]; Rattus norvegicus): 43 µM
ED50 [2, 8]: 72 mg/kg
ED50 ([3]; oral, 2 h after urate): 1.5 mg/kg
ED50 ([4]; oral): 65 mg/kg
IC50 ([5]; Rattus norvegicus, Leukocyte): 25 µM
ED50 ([6]; oral): 88 mg/kg
ED50 ([7]; Mus musculus; read-out: ED50, writhing): 100 mg/kg
inhibition of lipoxygenase activity (lipoxygenase): inhibitors of both cyclooxygenase and lipoxygenase activity

IC50 [5, 9]: < 50 µM
SMILES: O=C(O)C(O)N1C(=O)CCN1c1cccc(C(F)(F)F)c1 (stereo not drawn) [Example 1, α-Hydroxy-5-oxo-2-[3-(trifluoromethyl)phenyl]-1-pyrazolidine acetic acid]
% Change from Control, AA ear edema ([4]; topical, 1.0 mg/ear): -83% and -74%

IC50 [1, 9]: 3 to 5 µM
SMILES: O=C(O)C(O)N1C(=O)CCN1c1ccccc1 (stereo not drawn) [Example 2, α-Hydroxy-5-oxo-2-phenyl-1-pyrazolidine acetic acid]
% Inhibition of paw edema ([2]; 1 h prior to carrageenan): 46%
profile of activity in carrageenan rat paw edema test [2]: a profile of activity similar to that of phenidone
ED50 ([3]; oral, 2 h after urate): 5 mg/kg
% Change from Control, AA ear edema ([4]; oral, 100 mg/kg, 1 h after AA): -30%
% Change from Control, AA ear edema ([4]; topical, 0.1 mg/ear): -21%
% Change from Control, AA ear edema ([4]; topical, 0.33 mg/ear): -26%
% Change from Control, AA ear edema ([4]; topical, 1.0 mg/ear): -54%
% Change from Control, TPA ear edema ([6]; oral, 100 mg/kg, 4 h after TPA): -8%
% Change from Control, TPA ear edema ([6]; topical, 0.1 mg/ear): -12%
% Change from Control, TPA ear edema ([6]; topical, 0.33 mg/ear): -31%
% Change from Control, TPA ear edema ([6]; topical, 1.0 mg/ear): -23%
Mean No. of Writhes ([7]; 100 mg/kg; Control = 5.1): 3.5
Mean No. of Writhes ([7]; 133 mg/kg; Control = 15.5; * p ≤ 0.05): 3.2

IC50 [1, 9]: 2 to 5 µM
IC50 [5, 10]: 110 µM
SMILES: O=C(O)C(O)N1C(=O)CCN1c1cccc(Cl)c1 (stereo not drawn) [Example 3, 2-(m-Chlorophenyl)-α-hydroxy-5-oxo-1-pyrazolidine acetic acid]
% Inhibition of paw edema ([2]; 1 h prior to carrageenan): 29%
% Change from Control, AA ear edema ([4]; oral, 50 mg/kg, 1 h after AA): -5%
% Change from Control, TPA ear edema ([6]; oral, 50 mg/kg, 4 h after TPA): -8%

IC50 [1, 9]: 5 to 13 µM
SMILES: O=C(O)C(O)N1C(=O)CCN1c1cccc(F)c1 (stereo not drawn) [Example 4, 2-(3-Fluorophenyl)-α-hydroxy-5-oxo-1-pyrazolidine acetic acid]
% Inhibition of paw edema ([2]; 1 h prior to carrageenan): 44%
profile of activity in carrageenan rat paw edema test [2]: a profile of activity similar to that of phenidone
% Change from Control, AA ear edema ([4]; oral, 100 mg/kg, 1 h after AA): -11%
% Change from Control, AA ear edema ([4]; topical, 0.1 mg/ear): -27%
% Change from Control, AA ear edema ([4]; topical, 0.33 mg/ear): -38%
% Change from Control, AA ear edema ([4]; topical, 1.0 mg/ear): -63%
% Change from Control, TPA ear edema ([6]; oral, 50 mg/kg, 4 h after TPA): 0%
% Change from Control, TPA ear edema ([6]; oral, 100 mg/kg, 4 h after TPA): -27%
% Change from Control, TPA ear edema ([6]; topical, 0.1 mg/ear): -10%
% Change from Control, TPA ear edema ([6]; topical, 0.33 mg/ear): -23%
% Change from Control, TPA ear edema ([6]; topical, 1.0 mg/ear): -45%
Mean No. of Writhes ([7]; 100 mg/kg; Control = 4.5): 3.8
Mean No. of Writhes [7, 11]: 1.7

IC50 [1, 9]: 2 to 3 µM
IC50 [5, 10]: 140 µM
SMILES: O=C(O)C(O)N1C(=O)CCN1c1ccc(Cl)cc1 (stereo not drawn) [Example 5, 2-(4-Chlorophenyl)-α-hydroxy-5-oxo-1-pyrazolidine acetic acid]
% Inhibition of paw edema ([2]; 1 h prior to carrageenan): 30%
% Change from Control, AA ear edema ([4]; oral, 50 mg/kg, 1 h after AA): -22%
% Change from Control, TPA ear edema ([6]; oral, 50 mg/kg, 4 h after TPA): -8%

IC50 [1, 9]: < 50 µM
SMILES: O=C(O)C(O)N1C(=O)CCN1c1cccc([N+](=O)[O-])c1 (stereo not drawn) [Example 6, α-Hydroxy-5-oxo-2-(3-nitrophenyl)-1-pyrazolidine acetic acid]
% Change from Control, AA ear edema ([4]; oral, 100 mg/kg, 1 h after AA): +4%
% Change from Control, TPA ear edema ([6]; oral, 100 mg/kg, 4 h after TPA): -23%

SMILES: CC(=O)Oc1ccccc1C(=O)O [aspirin, reference compound]
Mean No. of Writhes [7, 11]: 6.6

SMILES: COc1ccc2c(c1)c(CC(=O)O)c(C)n2C(=O)c1ccc(Cl)cc1 [indomethacin, reference compound]
ED50 [2]: 5.6 mg/kg
ED50 ([3]; po, 2 h): 0.3 mg/kg
activity in AA ear edema ([4]; oral, 10 mg/kg): NA(10)
ED50, AA ear edema ([4]; topical): 0.1 mg/ear
activity in TPA ear edema ([6]; oral, 10 mg/kg): NA(10)
ED50, TPA ear edema ([6]; topical): 0.08 mg/ear
ED50 ([7]; Mus musculus, read-out: ED50, writhing): 10 mg/kg

IC50 [1, 9]: 12 µM
IC50 [5, 10]: > 100 µM
SMILES: O=C1CCN(c2ccccc2)N1 [phenidone, 1-phenyl-3-pyrazolidone, reference compound]
inhibition of cyclooxygenase activity (cyclooxygenase): inhibitors of both cyclooxygenase and lipoxygenase activity
ED50 [2, 8]: 196 mg/kg
ED50 ([3]; oral, 2 h after urate): 4.3 mg/kg
ED50 ([4]; oral): 84 mg/kg
ED50, AA ear edema ([4]; topical): 0.1 mg/ear
ED50 ([6]; oral): 235 mg/kg
ED50, TPA ear edema ([6]; topical): 0.6 mg/ear
Mean No. of Writhes ([7]; 200 mg/kg; Control = 4.0): 2.2
inhibition of lipoxygenase activity (lipoxygenase): inhibitors of both cyclooxygenase and lipoxygenase activity
